Assay results as given in ChEMBL document CHEMBL1201862, “PubChem BioAssay data set” (2004).
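Protocol summary: plate cells (96-well), add compound at 5 concentrations, incubate 48 h, interpolate endpoints linearly. GI50 = concentration required for 50% inhibition of growth.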 Calls of active or inactive are those of the source. No stated cut-off is given here; in the data, active = GI50 up to about 1.1 µM and inactive = higher.

Columns and labels:
Assay in all cases: inhibition of tumour cell growth, NCI panel, 48 h
UACC-257 = test system: UACC-257
SF-539 = test system: SF-539
Hs-578T = test system: Hs-578T
786-0 = test system: 786-0
CAKI-1 = test system: CAKI-1
NCI/ADR-RES = test system: NCI/ADR-RES
HT-29 = test system: HT-29
HCT-116 = test system: HCT-116
OVCAR-4 = test system: OVCAR-4
Malme-3M = test system: Malme-3M
OVCAR-3 = test system: OVCAR-3
K562 = test system: K562
OVCAR-8 = test system: OVCAR-8
LOX IMVI = test system: LOX IMVI
MDA-MB-435 = test system: MDA-MB-435
DU-145 = test system: DU-145
MDA-N = test system: MDA-N
SK-MEL-5 = test system: SK-MEL-5
MCF7 = test system: MCF7
SNB-75 = test system: SNB-75
IGROV-1 = test system: IGROV-1
CCRF-CEM = test system: CCRF-CEM
EKVX = test system: EKVX
COLO 205 = test system: COLO 205
SF-295 = test system: SF-295
M14 = test system: M14
SW-620 = test system: SW-620
HOP-92 = test system: HOP-92
UACC-62 = test system: UACC-62
SK-MEL-28 = test system: SK-MEL-28
SNB-19 = test system: SNB-19
NCI-H522 = test system: NCI-H522
NCI-H226 = test system: NCI-H226
SK-MEL-2 = test system: SK-MEL-2
NCI-H23 = test system: NCI-H23
NCI-H460 = test system: NCI-H460
BT-549 = test system: BT-549
T47D = test system: T47D
UO-31 = test system: UO-31
MOLT-4 = test system: MOLT-4
RXF 393 = test system: RXF 393
A498 = test system: A498
MDA-MB-231 = test system: MDA-MB-231
PC-3 = test system: PC-3
HCT-15 = test system: HCT-15
HL-60 = test system: HL-60
U-251 = test system: U-251
RPMI-8226 = test system: RPMI-8226
A549 = test system: A549
KM12 = test system: KM12
TK-10 = test system: TK-10
ACHN = test system: ACHN
HOP-62 = test system: HOP-62
SR = test system: SR
SF-268 = test system: SF-268
SK-OV-3 = test system: SK-OV-3
OVCAR-5 = test system: OVCAR-5
SN12C = test system: SN12C
HCC 2998 = test system: HCC 2998

Measured: GI50

S=c1cc(-c2ccc3c(c2)OCO3)s[nH]1
> 100 µM: HCT-15
inactive: UACC-257 > 100 µM | SF-539 > 100 µM | Hs-578T > 100 µM | 786-0 > 100 µM | CAKI-1 > 100 µM | NCI/ADR-RES > 100 µM | HT-29 > 100 µM | HCT-116 > 100 µM | OVCAR-4 > 100 µM | Malme-3M > 100 µM | OVCAR-3 > 100 µM | K562 > 100 µM | OVCAR-8 > 100 µM | LOX IMVI > 100 µM | MDA-MB-435 > 100 µM | DU-145 > 100 µM | MDA-N > 100 µM | SK-MEL-5 > 100 µM | MCF7 > 100 µM | SNB-75 48.4 µM | IGROV-1 > 100 µM | CCRF-CEM > 100 µM | EKVX > 100 µM | COLO 205 > 100 µM | SF-295 > 100 µM | M14 > 100 µM | SW-620 > 100 µM | HOP-92 > 100 µM | UACC-62 83.2 µM | SK-MEL-28 > 100 µM | SNB-19 > 100 µM | NCI-H522 5.81 µM | NCI-H226 58.5 µM | SK-MEL-2 > 100 µM | NCI-H23 > 100 µM | NCI-H460 > 100 µM | BT-549 > 100 µM | T47D 89.7 µM | UO-31 > 100 µM | MOLT-4 65.3 µM | RXF 393 > 100 µM | A498 46.6 µM | MDA-MB-231 > 100 µM | PC-3 > 100 µM | HL-60 > 100 µM | U-251 > 100 µM | RPMI-8226 > 100 µM | A549 > 100 µM | KM12 > 100 µM | TK-10 > 100 µM | ACHN > 100 µM | HOP-62 > 100 µM | SR > 100 µM | SF-268 > 100 µM | SK-OV-3 > 100 µM | OVCAR-5 > 100 µM | SN12C > 100 µM

O=c1cc(-c2cc(O)c(O)c(-c3c(O)cc4oc(-c5ccc(O)c(O)c5)cc(=O)c4c3O)c2)oc2cc(O)cc(O)c12
inactive: UACC-257 > 25 µM | SF-539 > 25 µM | Hs-578T > 25 µM | CAKI-1 > 25 µM | NCI/ADR-RES > 25 µM | HT-29 > 25 µM | HCT-116 17.5 µM | OVCAR-4 > 25 µM | Malme-3M > 25 µM | OVCAR-3 > 25 µM | K562 > 25 µM | OVCAR-8 > 25 µM | LOX IMVI > 25 µM | MDA-MB-435 > 25 µM | DU-145 > 25 µM | MDA-N > 25 µM | SK-MEL-5 > 25 µM | MCF7 > 25 µM | SNB-75 24.9 µM | IGROV-1 > 25 µM | CCRF-CEM > 25 µM | EKVX > 25 µM | COLO 205 > 25 µM | SF-295 > 25 µM | M14 > 25 µM | SW-620 > 25 µM | HOP-92 > 25 µM | UACC-62 > 25 µM | SK-MEL-28 > 25 µM | NCI-H226 > 25 µM | SK-MEL-2 > 25 µM | NCI-H23 > 25 µM | NCI-H460 > 25 µM | BT-549 > 25 µM | T47D 11.3 µM | UO-31 > 25 µM | HCC 2998 > 25 µM | MOLT-4 > 25 µM | RXF 393 > 25 µM | A498 > 25 µM | MDA-MB-231 > 25 µM | PC-3 > 25 µM | HL-60 > 25 µM | U-251 19.2 µM | A549 > 25 µM | TK-10 > 25 µM | HOP-62 > 25 µM | SR > 25 µM | SF-268 > 25 µM | SK-OV-3 > 25 µM | OVCAR-5 > 25 µM | SN12C > 25 µM
> 25 µM: HCT-15

OCCN(C1=NCCN1)/[N+](=C/c1ccccc1O)[CH-]c1ccccc1O
inactive: UACC-257 > 100 µM | SF-539 > 100 µM | Hs-578T > 100 µM | 786-0 > 100 µM | CAKI-1 > 100 µM | NCI/ADR-RES 83.6 µM | HT-29 > 100 µM | HCT-116 > 100 µM | OVCAR-4 > 100 µM | Malme-3M > 100 µM | OVCAR-3 > 100 µM | K562 > 100 µM | OVCAR-8 > 100 µM | LOX IMVI > 100 µM | MDA-MB-435 > 100 µM | DU-145 > 100 µM | MDA-N > 100 µM | SK-MEL-5 > 100 µM | MCF7 > 100 µM | SNB-75 > 100 µM | IGROV-1 > 100 µM | CCRF-CEM > 100 µM | EKVX > 100 µM | COLO 205 > 100 µM | SF-295 > 100 µM | M14 > 100 µM | SW-620 > 100 µM | UACC-62 > 100 µM | SNB-19 > 100 µM | NCI-H522 > 100 µM | NCI-H226 28.6 µM | SK-MEL-2 > 100 µM | NCI-H23 > 100 µM | NCI-H460 > 100 µM | BT-549 37.8 µM | T47D > 100 µM | UO-31 37 µM | HCC 2998 > 100 µM | MOLT-4 > 100 µM | A498 > 100 µM | MDA-MB-231 > 100 µM | PC-3 > 100 µM | HL-60 > 100 µM | U-251 > 100 µM | RPMI-8226 > 100 µM | A549 > 100 µM | KM12 > 100 µM | TK-10 > 100 µM | ACHN > 100 µM | HOP-62 > 100 µM | SR > 100 µM | SF-268 > 100 µM | SK-OV-3 > 100 µM | OVCAR-5 > 100 µM | SN12C > 100 µM
51.5 µM: HCT-15
